Results on two compounds are retold here after article PMC6160570, “Maprotiline Prevents Monocrotaline-Induced Pulmonary Arterial Hypertension in Rats” (Frontiers in Pharmacology, 2018).

Like-named read-outs stand apart in the source and are kept apart here.

As a reminder, the Kd is the free concentration of one partner at which half of the binding sites on the other are occupied at equilibrium, for simple one-to-one binding.

Test [1] concerns the target T1, soluble guanylate cyclase (sGC), α1/β1 heterodimer (Homo sapiens, UniProt Q02108+Q02153).
T1 sequence (Q02153 1-619): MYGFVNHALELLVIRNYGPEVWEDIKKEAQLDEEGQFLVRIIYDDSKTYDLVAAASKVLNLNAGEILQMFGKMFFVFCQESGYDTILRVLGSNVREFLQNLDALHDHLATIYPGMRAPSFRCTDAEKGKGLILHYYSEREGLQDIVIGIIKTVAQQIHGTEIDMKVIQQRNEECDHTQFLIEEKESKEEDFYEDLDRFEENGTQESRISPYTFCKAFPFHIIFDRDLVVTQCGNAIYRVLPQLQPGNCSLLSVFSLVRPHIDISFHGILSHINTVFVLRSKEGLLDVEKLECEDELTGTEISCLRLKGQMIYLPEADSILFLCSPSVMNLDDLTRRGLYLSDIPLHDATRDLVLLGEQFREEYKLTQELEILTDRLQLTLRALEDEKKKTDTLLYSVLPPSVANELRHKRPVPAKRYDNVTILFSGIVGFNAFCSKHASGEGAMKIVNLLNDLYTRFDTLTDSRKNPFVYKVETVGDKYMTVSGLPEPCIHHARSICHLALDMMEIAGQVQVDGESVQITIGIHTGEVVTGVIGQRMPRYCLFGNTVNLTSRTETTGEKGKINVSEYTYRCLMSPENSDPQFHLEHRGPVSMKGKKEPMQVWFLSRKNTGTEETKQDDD
T1 sequence (Q02108 1-690): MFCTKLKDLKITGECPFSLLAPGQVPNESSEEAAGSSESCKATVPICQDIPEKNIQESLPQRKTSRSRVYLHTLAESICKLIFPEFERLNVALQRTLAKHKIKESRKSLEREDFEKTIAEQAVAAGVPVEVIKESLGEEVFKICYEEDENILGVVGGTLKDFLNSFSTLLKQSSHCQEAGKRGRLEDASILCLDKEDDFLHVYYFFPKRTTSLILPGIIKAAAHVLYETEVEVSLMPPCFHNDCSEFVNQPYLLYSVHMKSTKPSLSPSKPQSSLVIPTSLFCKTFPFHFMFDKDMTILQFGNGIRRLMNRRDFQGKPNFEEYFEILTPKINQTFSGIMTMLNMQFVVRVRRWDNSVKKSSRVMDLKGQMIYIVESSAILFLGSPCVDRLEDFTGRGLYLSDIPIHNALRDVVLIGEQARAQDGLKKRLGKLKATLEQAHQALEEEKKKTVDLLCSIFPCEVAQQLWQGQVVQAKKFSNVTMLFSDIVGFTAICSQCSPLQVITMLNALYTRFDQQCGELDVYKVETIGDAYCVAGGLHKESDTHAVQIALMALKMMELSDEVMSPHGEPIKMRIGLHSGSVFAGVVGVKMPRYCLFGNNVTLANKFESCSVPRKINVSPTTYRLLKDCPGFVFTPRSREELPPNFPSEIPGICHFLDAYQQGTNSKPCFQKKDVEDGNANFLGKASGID
Briefly: SPR (Biacore T200, sGC immobilized on CM5 chip), positive control. Also noted: gene GUCY1B1; full-length recombinant sGC (α1 and β1 subunits coexpressed in Sf9 cells); with sGC α1 subunit (GUCY1A1, Q02108). It is filed as binding. (In general: SPR reads the build-up and loss of mass on a sensor chip optically.)

Test [2] addresses T1, soluble guanylate cyclase (sGC), α1/β1 heterodimer. More on the design: gene GUCY1B1.

As for `OCc1ccc(-c2nn(Cc3ccccc3)c3ccccc23)o1` [YC-1], the Kd in test [1] was 2180 nM.

In the case of `CNCCCC12CCC(c3ccccc31)c1ccccc12` [maprotiline], the affinity in test [2], expressed as Kd, was 307 nM.
